# According to US11878981B2, “Substituted 1,2,4-oxadiazoles as TRPA1 inhibitors” (Boehringer Ingelheim International GmbH, priority 2021, dated 2024):
# pIC50: −log10 of the molar value.
# Key:
# [1] = Assay B: Microsomal clearance; assay type: in vitro ADME, human; conditions: pooled liver microsomes, 37° C., 1 mg/ml protein, test compound 1 μM, NADPH
# Experimental: Assay B: Microsomal Clearance:
# The metabolic degradation of the test compound is assayed at 37° C. with pooled liver microsomes. The final incubation volume of 100 μl per time point contains TRIS buffer pH 7.6 at RT (0.1 M), magnesium chloride (5 mM), microsomal protein (1 mg/ml) and the test compound at a final concentration of 1 μM.
# Following a short preincubation period at 37° C., the reactions are initiated by addition of beta-nicotinamide adenine dinucleotide phosphate, reduced form (NADPH, 1 mM) and terminated by transferring an aliquot into solvent after different time points (0, 5, 15, 30, 60 min). Additionally, the NADPH-independent degradation is monitored in incubations without NADPH, terminated at the last time point. The [%] remaining test compound after NADPH independent incubation is reflected by the parameter c (control) (metabolic stability). The quenched incubations are pelleted by centrifugation (10000 g, 5 min).
# An aliquot of the supernatant is assayed by LC-MS/MS for the amount of parent compound. The half-life (t½ INVITRO) is determined by the slope of the semilogarithmic plot of the concentration-time profile.
# The intrinsic clearance (CL_[…]) is calculated by considering the amount of protein in the incubation: CL _[…] [μl/min/mg protein]=(Ln 2/(half-life [min]*protein content [mg/ml]))*1000 CL_[…]_INVIVO [ml/min/kg]=(CL_[…] [μL/min/mg protein]×MPPGL [mg protein/g liver]×liver factor [g/kg bodyweight])/1000 Qh [%]=CL [ml/min/kg]/hepatic blood flow [ml/min/kg])
# (§1) Hepatocellularity, human: 120×10e6 cells/g liver
# (§2) Liver factor, human: 25.7 g/kg bodyweight
# (§3) Blood flow, human: 21 ml/(min×kg)
# human TRPA1 ion channel = biological target: T1, human TRPA1 ion channel (Homo sapiens, UniProt O75762); experiment: Assay A: TRPA1 assay (in vitro TRPA1 cell assay, FLIPR calcium); assay type: cell-based; conditions: read-out: hTRPA1 IC50
# T1 construct: host or cells: HEK293
# Experimental: A human HEK293 cell line over-expressing the human TRPA1 ion channel (Perkin Elmer, Product No. AX-004-PCL) is used as a test system for compound efficacy and potency. Compound activity is determined by measuring the effect of compounds on intracellular calcium concentration induced by AITC (Allylisothiocyanat) agonism in a FLIPRtetra system (Molecular Devices).
# The cells are obtained as frozen cells in cryo-vials and stored until use at −150° C.
# Cells are grown in culture medium (MEM/EBSS medium with 10% FCS and 0.4 mg/ML Geneticin). […] For sub-culturing cells are detached from flasks by Versene. At the day before the assay, cells are detached, washed twice with medium (MEM/EBSS medium with 10% FCS) and 20000 cells in 20 μl/well are seeded to Poly D-Lysin biocoated 384-well plates (black, clear bottom, Cat. 356697) from Corning. Plates are incubated for 24 hours at 37° C./5% CO2 before use in the assay.
# The test compounds are dissolved in 100% DMSO at a concentration of 10 mM and in a first step diluted in DMSO to a concentration of 5 mM, followed by serial dilution steps in 100% DMSO. Dilution factor and number of dilution steps may vary according to needs. Typically 8 different concentrations by 1:5 dilutions are prepared, further intermediate dilutions (1:20) of the substances are carried out with HBSS/HEPES buffer (1×HEPES, Cat. 14065 from Gibco, 20 mM HEPES, Cat. 83264 from SIGMA, 0.1% BSA Cat. 11926 from Invitrogen, pH 7.4
# At the assay day cells are washed 3× with assay puffer, 20 μL buffer remaining in the wells after washing. 10 μL Ca6 kit (Cat. R8191 MolecularDevices) loading buffer in HBSS/HEPES is added to the cells and the plates are incubated with lid for 120 minutes at 37°/5% CO2. 10 μL of compound or controls in HBSS/HEPES buffer/5% DMSO from the intermediate dilution plate are carefully added to the wells. […] Finally 10 μL of the agonist AITC 50 μM dissolved in HBSS/HEPES buffer/0.05% DMSO (final concentration 10 μM) is added to the wells followed by an additional read on the FLIPRtetra device for 10 minutes. The area under the signal curve (AUC) after AITC addition is used for IC50/% inhibition calculations
# Data Evaluation and Calculation:
# Each assay microtiter plate contains wells with vehicle (1% DMSO) controls instead of compound as controls for AITC induced luminescence (100% CTL; high controls) and wells with vehicle controls without AITC as controls for non-specific changes in luminescence (0% CTL; low controls).
# The analysis of the data is performed by the calculation of the area under signal curve of the individual wells. Based on this values the % value for the measurement of each substance concentration is calculated (AUC(sample)−AUC(low))*100/(AUC(high)−AUC(low)) using MegaLab software (in house development). The IC50 values are calculated from the % control values using MegaLab software. Calculation: [y=(a−d)/(1+(x/c)^b)+d], a=low value, d=high value; x=conc M; c=IC50 M; b=hill; y=% ctrl
# human hepatocytes = experiment: Assay C: Hepatocyte clearance; assay type: in vitro ADME; conditions: hepatocyte suspension, 5% species serum, test compound 1 μM, six hours
# Experimental: Assay C: Hepatocyte Clearance
# The metabolic degradation of the test compound is assayed in a hepatocyte suspension. Hepatocytes (cryopreserved) are incubated in Dulbecco's modified eagle medium (supplemented with 3.5 μg glucagon/500 mL, 2.5 mg insulin/500 mL and 3.75 mg/500 mL hydrocortison) containing 5% species serum.
# The cells are incubated for six hours (incubator, orbital shaker) and samples ([…]) are taken at 0, 0.5, 1, 2, 4 and 6 hours. Samples are transferred into acetonitrile and pelleted by centrifugation (5 min). The supernatant is transferred to a new 96-deepwell plate, evaporated under nitrogen and resuspended.
# Decline of Parent Compound is Analyzed by HPLC-MS/MS
# CLint is calculated as follows CL_[…]=Dose/AUC=(C0/CD)/(AUD+clast/k)×1000/60. C0: initial concentration in the incubation [μM], CD: cell density of vital cells [10e6 cells/mL], AUD: area under the data [μM×h], clast: concentration of last data point [μM], k: slope of the regression line for parent decline [h−1].
# The calculated in vitro hepatic intrinsic clearance can be scaled up to the intrinsic in vivo hepatic Clearance and used to predict hepatic in vivo blood clearance (CL) by the use of a liver model (well stirred model). CL_[…]_INVIVO [ml/min/kg]=(CL_[…] [μL/min/10e6cells]×hepatocellularity [10e6 cells/g liver]×liver factor [g/kg bodyweight])/1000 CL [ml/min/kg]=CL_[…]_INVIVO [ml/min/kg]×hepatic blood flow [ml/min/kg]/(CL_[…]_INVIVO [ml/min/kg]+hepatic blood flow [ml/min/kg]) Qh [%]=CL [ml/min/kg]/hepatic blood flow [ml/min/kg])
# as §1, §2, §3
# T1 sequence (O75762 whole entry): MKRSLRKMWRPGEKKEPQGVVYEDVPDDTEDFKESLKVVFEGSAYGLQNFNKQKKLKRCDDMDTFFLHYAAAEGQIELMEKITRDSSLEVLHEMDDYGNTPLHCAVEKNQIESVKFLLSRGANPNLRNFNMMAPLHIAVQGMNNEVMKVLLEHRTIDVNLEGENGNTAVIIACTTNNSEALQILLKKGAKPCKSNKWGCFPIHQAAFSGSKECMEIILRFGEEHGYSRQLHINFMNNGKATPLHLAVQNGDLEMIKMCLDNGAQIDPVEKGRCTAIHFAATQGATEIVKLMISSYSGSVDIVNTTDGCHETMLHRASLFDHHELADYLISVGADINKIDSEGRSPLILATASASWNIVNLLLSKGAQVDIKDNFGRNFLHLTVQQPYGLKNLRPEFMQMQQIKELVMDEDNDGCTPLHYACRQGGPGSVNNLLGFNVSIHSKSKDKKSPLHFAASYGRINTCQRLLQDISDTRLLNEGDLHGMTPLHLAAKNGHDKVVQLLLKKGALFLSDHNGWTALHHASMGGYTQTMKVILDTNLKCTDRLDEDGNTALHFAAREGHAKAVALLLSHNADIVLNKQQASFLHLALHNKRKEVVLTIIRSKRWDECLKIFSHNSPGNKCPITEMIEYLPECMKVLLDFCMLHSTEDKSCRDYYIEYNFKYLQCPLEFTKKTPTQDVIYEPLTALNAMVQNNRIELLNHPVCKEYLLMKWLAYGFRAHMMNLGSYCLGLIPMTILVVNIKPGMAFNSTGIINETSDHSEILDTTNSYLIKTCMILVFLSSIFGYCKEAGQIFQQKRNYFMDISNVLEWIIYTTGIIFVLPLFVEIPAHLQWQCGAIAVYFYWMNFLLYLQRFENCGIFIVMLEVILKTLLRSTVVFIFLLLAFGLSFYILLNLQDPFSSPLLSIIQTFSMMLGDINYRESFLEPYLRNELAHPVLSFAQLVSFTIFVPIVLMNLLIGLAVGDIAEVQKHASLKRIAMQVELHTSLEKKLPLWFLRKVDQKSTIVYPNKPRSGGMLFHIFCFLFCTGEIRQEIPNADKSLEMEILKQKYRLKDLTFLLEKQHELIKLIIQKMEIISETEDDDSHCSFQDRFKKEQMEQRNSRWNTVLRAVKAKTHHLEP
Structure (SMILES),human LM [% Qh] [1] [% Qh],pIC50 (human TRPA1 ion channel),human Hepatocytes [% Qh] (human hepatocytes)
Cn1cnc2cnn(Cc3nc(C[C@H](O)c4cc5ccccc5s4)no3)c(=O)c21 [Example 12],31,7.62,42
"Cn1cnc2cnn(Cc3nc(C[C@H](O)c4ccc(Br)cc4)no3)c(=O)c21 [Example 8, 6-({3-[(2S)-2-(4-bromophenyl)-2-hydroxyethyl]-1,2,4-oxadiazol-5-yl}methyl)-1-methyl-1H,6H,7H-imidazo[4,5-d]pyridazin-7-one]",<23,7.39,39
Cn1c(=O)n(C)c2c(=O)n(Cc3nc(C[C@H](O)c4cc5ccccc5o4)no3)ncc21 [Example 4],<23,6.80,9
Cn1cnc2cnn(Cc3nc(C[C@H](O)c4cc5cc(Cl)ccc5o4)no3)c(=O)c21 [Example 11],30,7.72,35
Cn1c(=O)n(C)c2c(=O)n(Cc3nc(C[C@H](O)c4cc5ccccc5s4)no3)ncc21 [Example 14],<23,7.72,43
Cn1c(=O)n(C)c2c(=O)n(Cc3nc(C[C@H](O)c4ccc(F)cc4)no3)ncc21 [Example 3],<23,6.83,13
Cn1c(=O)n(C)c2c(=O)n(Cc3nc(C[C@H](O)c4cc5ccc(F)cc5s4)no3)ncc21 [Example 13],36,8.05,–
Cc1ccc([C@@H](O)Cc2noc(Cn3ncc4ncn(C)c4c3=O)n2)cc1 [Example 6],<23,7.02,9
Cn1c(=O)n(C)c2c(=O)n(Cc3nc(C[C@H](O)c4cc5cc(F)ccc5o4)no3)ncc21 [Example 16],<23,7.10,14

# More lines, in order of rising pIC50 (human TRPA1 ion channel), values ahead:
human LM [% Qh] [1] [% Qh],pIC50 (human TRPA1 ion channel),human Hepatocytes [% Qh] (human hepatocytes),Structure (SMILES)
<23,6.69,9,Cn1cnc2cnn(Cc3nc(C[C@H](O)c4ccc5c(c4)OCO5)no3)c(=O)c21 [Example 7]
<23,7.22,23,Cn1cnc2cnn(Cc3nc(C[C@H](O)c4ccc(Cl)cc4)no3)c(=O)c21 [Example 5]
<23,7.33,12,Cn1c(=O)n(C)c2c(=O)n(Cc3nc(C[C@H](O)c4cc5cc(Cl)ccc5o4)no3)ncc21 [Example 15]
<23,7.33,14,Cc1ccc([C@@H](O)Cc2noc(Cn3ncc4c(c3=O)n(C)c(=O)n4C)n2)cc1 [Example 2]
<23,7.66,10,"Cn1c(=O)n(C)c2c(=O)n(Cc3nc(C[C@H](O)c4ccc(Cl)cc4)no3)ncc21 [Example 1, 5-({3-[(2S)-2-(4-chlorophenyl)-2-hydroxyethyl]-1,2,4-oxadiazol-5-yl}methyl)-1,3-dimethyl-1H,2H,3H,4H,5H-imidazo[4,5-d]pyridazine-2,4-dione]"
<23,7.89,29,Cn1cnc2cnn(Cc3nc(C[C@H](O)c4cc5cc(F)ccc5o4)no3)c(=O)c21 [Example 10]
41,8.05,43,Cn1cnc2cnn(Cc3nc(C[C@H](O)c4cc5ccc(F)cc5s4)no3)c(=O)c21 [Example 9]
